This passage reports IC50 results from patent US10590158B2 (priority 2015, dated 2020).

The structures appear in SMILES notation.

What all share (experiment): cells
Format in all cases: cell-based

In one assay the test system is 293T cells. The conditions noted are these: Homo sapiens, HEK-293T, 72 h, read-out: IC50 293T.
For another assay, the system named is MES SA cells. The following applies: Homo sapiens, 72 h, read-out: IC50 MES SA.
The subject of the next assay is MES DX cells. The conditions noted are these: MDR1, 72 h, read-out: IC50 MES DX.

Turning to `COC(=O)NC1=C2/C(=C\CSSSC)[C@](O)(C#C/C=C\C#C[C@]2(O)OC2OC(C)C(SC)(C(=O)c3nccc4c3[nH]c3ccc(O)cc34)C(O)C2OC2CC(OC)C(NC(C)C)CO2)CC1=O` (stereo partly shown), the IC50 came out at 0.0162 nM in the assay with 293T cells and 0.0126 nM with MES SA cells.
With `COC(=O)NC1=C2/C(=C\CSSC)[C@](O)(C#C/C=C\C#C[C@]2(O)OC2OC(C)C(SC)(C(=O)c3nccc4c3[nH]c3ccc(O)cc34)C(O)C2OC2CC(OC)C(NC(C)C)CO2)CC1=O` (stereo partly shown), the values for the IC50 with MES DX cells and with 293T cells were 34.6 nM and 0.00146 nM, respectively.
